Literature values in US20020194154A1, “Systems, methods and computer program products for integrating biological/chemical databases using aliases” (priority 2001, published 2002).

Details: side effect; text mining of HSDB

CC(C)(C)NCC(O)c1cc(Cl)c(N)c(Cl)c1 (centres unmarked) [clenbuterol]
cardiac arrhythmia: can in some cases cause cardiac arrhythmia | heart rate: increases heart rate
